Assay [1] has as its target T1, α7 nAChR Subtype (Rattus norvegicus, UniProt Q05941).
T1 construct: The hippocampus was removed and placed in 10 volumes (weight:volume) of ice-cold preparative buffer; from tissue; host or cells: rat hippocampus membranes
Put plainly: Radioligand binding ([3H]MLA) at α7 nAChR subtype, rat hippocampus membranes; HTS at 5 μM. As to conditions: 5 μM compound, 5 nM 3H-MLA; read-out: α7 high throughput screening (HTS) binding. The procedure: Rats (female, Sprague-Dawley), weighing 150-250 g, were maintained on a 12 h light/dark cycle and were allowed free access to water and food supplied by PMI Nutrition International, Inc. Animals were anesthetized with 70% CO2, then decapitated. Brains were removed and placed on an ice-cold platform. The hippocampus was removed and placed in 10 volumes (weight:volume) of ice-cold preparative buffer (137 mM NaCl, 10.7 mM KCl, 5.8 mM KH2PO4, 8 mM Na2HPO4, 20 mM HEPES (free acid), 5 mM iodoacetamide, 1.6 mM EDTA, pH 7.4); PMSF, dissolved in methanol to a final concentration of 100 μM, was added and the tissue suspension was homogenized by Polytron. The homogenate was centrifuged at 18,000×g for 20 min at 4° C. and the resulting pellet was re-suspended in 10 volumes of ice-cold water. After 60 min incubation on ice, a new pellet was collected by centrifugation at 18,000×g for 20 min at 4° C. The final pellet was re-suspended in 10 volumes of buffer and stored at −20° C. On the day of the assay, tissue was thawed, centrifuged at 18,000×g for 20 min, and then re-suspended in ice-cold PBS (Dulbecco's Phosphate Buffered Saline, 138 mM NaCl, 2.67 mM KCl, 1.47 mM KH2PO4, 8.1 mM Na2HPO4, 0.9 mM CaCl2, 0.5 mM MgCl2, Invitrogen/Gibco, pH 7.4) to a final concentration of approximately 2 mg protein/mL. Protein was determined by the method of Lowry et al., J. Biol. Chem. 193: 265 (1951), using bovine serum albumin as the standard.
The binding of [^3H]MLA was measured using a modification of the methods of Davies et al., Neuropharmacol. 38: 679 (1999). [^3H]MLA (Specific Activity=25-35 Ci/mmol) was obtained from Tocris. The binding of [^3H]MLA was determined using a 2 h incubation at 21° C. Incubations were conducted in 48-well micro-titre plates and contained about 200 μg of protein per well in a final incubation volume of 300 μL. The incubation buffer was PBS and the final concentration of [^3H]MLA was 5 nM. The binding reaction was terminated by filtration of the protein containing bound ligand onto glass fiber filters (GF/B, Brandel) using a Brandel Tissue Harvester at room temperature. Filters were soaked in de-ionized water containing 0.33% polyethyleneimine to reduce non-specific binding. Each filter was washed with PBS (3×1 mL) at room temperature. Non-specific binding was determined by inclusion of 50 μM non-radioactive MLA in selected wells.
[…] Each concentration was replicated in triplicate. […] […] Pharmacol. 22: 3099-3108 (1973).

Assay [2] concerns the target Human α4β2 (Homo sapiens, UniProt P17787+P43681). The experiment in a line: Binding at human α4β2 subtype (Table 1).
Assay [3] concerns the target T2, α4β2 nAChR Subtype (Rattus norvegicus, UniProt P09483+P12390).
T2 construct: The cerebral cortex was removed and placed in 20 volumes (weight:volume) of ice-cold preparative buffer; from tissue; host or cells: rat cerebral cortex membranes
The experiment in a line: Radioligand binding ([3H]nicotine) at rat α4β2 nAChR subtype, rat cerebral cortex membranes. On the procedure: Rats (female, Sprague-Dawley), weighing 150-250 g, were maintained on a 12 h light/dark cycle and were allowed free access to water and food supplied by PMI Nutrition International, Inc. Animals were anesthetized with 70% CO2, then decapitated. Brains were removed and placed on an ice-cold platform. The cerebral cortex was removed and placed in 20 volumes (weight:volume) of ice-cold preparative buffer (137 mM NaCl, 10.7 mM KCl, 5.8 mM KH2PO4, 8 mM Na2HPO4, 20 mM HEPES (free acid), 5 mM iodoacetamide, 1.6 mM EDTA, pH 7.4); PMSF, dissolved in methanol to a final concentration of 100 μM, was added and the suspension was homogenized by Polytron. The homogenate was centrifuged at 18,000×g for 20 min at 4° C. and the resulting pellet was re-suspended in 20 volumes of ice-cold water. After 60 min incubation on ice, a new pellet was collected by centrifugation at 18,000×g for 20 min at 4° C. The final pellet was re-suspended in 10 volumes of buffer and stored at −20° C. On the day of the assay, tissue was thawed, centrifuged at 18,000×g for 20 min, and then re-suspended in ice-cold PBS (Dulbecco's Phosphate Buffered Saline, 138 mM NaCl, 2.67 mM KCl, 1.47 mM KH2PO4, 8.1 mM Na2HPO4, 0.9 mM CaCl2, 0.5 mM MgCl2, Invitrogen/Gibco, pH 7.4) to a final concentration of approximately 4 mg protein/mL. Protein was determined by the method of Lowry et al., J. Biol. Chem. 193: 265 (1951), using bovine serum albumin as the standard.
The binding of [^3H]nicotine was measured using a modification of the methods of Romano et al., Science 210: 647 (1980) and Marks et al., Mol. Pharmacol. 30: 427 (1986). The [^3H]nicotine (Specific Activity=81.5 Ci/mmol) was obtained from NEN Research Products. The binding of [^3H]nicotine was measured using a 3 h incubation at 4° C. Incubations were conducted in 48-well micro-titre plates and contained about 400 μg of protein per well in a final incubation volume of 300 μL. The incubation buffer was PBS and the final concentration of [^3H]nicotine was 5 nM. The binding reaction was terminated by filtration of the protein containing bound ligand onto glass fiber filters (GF/B, Brandel) using a Brandel Tissue Harvester at 4° C. Filters were soaked in de-ionized water containing 0.33% polyethyleneimine to reduce non-specific binding. Each filter was washed with ice-cold buffer (3×1 mL). Non-specific binding was determined by inclusion of 10 μM non-radioactive L-nicotine (Acros Organics) in selected wells.
The inhibition of [^3H]nicotine binding by test compounds was determined by including seven different concentrations of the test compound in selected wells. Each concentration was replicated in triplicate. IC50 values were estimated as the concentration of compound that inhibited 50 percent of specific [^3H]nicotine binding. Inhibition constants (Ki values), reported in nM, were calculated from the IC50 values using the method of Cheng et al., Biochem. Pharmacol. 22: 3099 (1973).

Assay [4] is described as follows: NOR (novel object recognition) task in rats. The format is in vivo, rat. To be noted: treated orally, 0.03 mg/kg. On the procedure:
FIG. 1 is a chart showing the results of a study on object recognition in rats treated orally with (1S,5S)-3-(5-bromofuran-2-ylcarbonyl)-3,6-diazabicyclo[3.2.1]octane. The results are shown as a function of recognition index (%) versus dose (mg/kg).
Certain exemplified compounds were assessed in the NOR (novel object recognition) task. Thus, (1S,5S)-3-(5-bromofuran-2-ylcarbonyl)-3,6-diazabicyclo[3.2.1]octane (FIG. 1) was active in NOR in rats, at 0.03 mg/kg. This provides evidence of the efficacy (and potency) of the compounds of the present invention in treating cognitive deficits, attentional disorders and dementias, and the potential of these compounds for human therapy.

The mark [5] stands for this setting: [3H]nicotine 5 nM, rat cortex, read-out: Rat α4β2 Ki.

SMILES strings stand for the structures. Where two headings read alike, the source gives them in different places.

T1 sequence (Q05941 23-502): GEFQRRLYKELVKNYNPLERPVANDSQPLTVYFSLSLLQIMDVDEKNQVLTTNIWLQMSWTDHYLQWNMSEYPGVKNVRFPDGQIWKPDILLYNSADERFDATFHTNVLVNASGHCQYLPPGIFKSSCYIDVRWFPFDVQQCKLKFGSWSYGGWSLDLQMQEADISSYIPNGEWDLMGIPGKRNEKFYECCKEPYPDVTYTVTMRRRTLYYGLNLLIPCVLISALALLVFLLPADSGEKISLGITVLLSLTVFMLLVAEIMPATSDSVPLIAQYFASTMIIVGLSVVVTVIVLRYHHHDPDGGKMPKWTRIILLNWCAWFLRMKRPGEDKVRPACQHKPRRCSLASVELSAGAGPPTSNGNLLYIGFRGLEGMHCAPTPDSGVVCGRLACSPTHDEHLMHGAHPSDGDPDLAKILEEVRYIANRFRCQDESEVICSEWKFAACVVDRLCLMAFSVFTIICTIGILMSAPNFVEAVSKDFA
T2 sequence (P09483 31-630): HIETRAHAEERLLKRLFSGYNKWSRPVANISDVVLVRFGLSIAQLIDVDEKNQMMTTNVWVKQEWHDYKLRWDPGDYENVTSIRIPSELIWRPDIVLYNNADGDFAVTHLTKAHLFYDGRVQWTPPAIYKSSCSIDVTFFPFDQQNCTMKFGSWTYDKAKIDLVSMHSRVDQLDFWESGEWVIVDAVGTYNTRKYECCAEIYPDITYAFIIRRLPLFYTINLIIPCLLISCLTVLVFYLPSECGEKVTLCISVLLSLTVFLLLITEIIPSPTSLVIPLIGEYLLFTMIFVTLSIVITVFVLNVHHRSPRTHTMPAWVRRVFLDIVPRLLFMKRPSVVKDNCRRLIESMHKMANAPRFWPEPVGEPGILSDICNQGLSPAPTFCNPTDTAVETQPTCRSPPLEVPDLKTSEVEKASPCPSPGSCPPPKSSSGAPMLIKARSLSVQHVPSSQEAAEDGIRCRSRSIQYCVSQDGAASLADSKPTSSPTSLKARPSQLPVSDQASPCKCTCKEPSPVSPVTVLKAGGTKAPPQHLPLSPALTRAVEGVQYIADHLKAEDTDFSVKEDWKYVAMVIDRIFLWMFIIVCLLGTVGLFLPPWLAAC
T2 sequence (P12390 25-500): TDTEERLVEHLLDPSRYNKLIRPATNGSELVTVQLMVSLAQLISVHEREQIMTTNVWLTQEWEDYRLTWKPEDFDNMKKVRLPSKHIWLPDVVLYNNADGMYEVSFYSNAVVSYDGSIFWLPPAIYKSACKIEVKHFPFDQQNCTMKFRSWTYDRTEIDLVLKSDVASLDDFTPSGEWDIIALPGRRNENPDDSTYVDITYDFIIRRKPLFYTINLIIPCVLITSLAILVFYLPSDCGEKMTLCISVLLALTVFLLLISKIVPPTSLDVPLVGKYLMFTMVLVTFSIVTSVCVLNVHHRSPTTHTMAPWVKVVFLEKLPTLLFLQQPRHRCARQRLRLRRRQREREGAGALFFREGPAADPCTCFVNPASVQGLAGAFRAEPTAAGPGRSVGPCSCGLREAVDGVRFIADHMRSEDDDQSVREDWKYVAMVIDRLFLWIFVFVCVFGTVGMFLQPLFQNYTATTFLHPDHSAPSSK
Human α4β2, sequence (P43681 29-627 limits assumed): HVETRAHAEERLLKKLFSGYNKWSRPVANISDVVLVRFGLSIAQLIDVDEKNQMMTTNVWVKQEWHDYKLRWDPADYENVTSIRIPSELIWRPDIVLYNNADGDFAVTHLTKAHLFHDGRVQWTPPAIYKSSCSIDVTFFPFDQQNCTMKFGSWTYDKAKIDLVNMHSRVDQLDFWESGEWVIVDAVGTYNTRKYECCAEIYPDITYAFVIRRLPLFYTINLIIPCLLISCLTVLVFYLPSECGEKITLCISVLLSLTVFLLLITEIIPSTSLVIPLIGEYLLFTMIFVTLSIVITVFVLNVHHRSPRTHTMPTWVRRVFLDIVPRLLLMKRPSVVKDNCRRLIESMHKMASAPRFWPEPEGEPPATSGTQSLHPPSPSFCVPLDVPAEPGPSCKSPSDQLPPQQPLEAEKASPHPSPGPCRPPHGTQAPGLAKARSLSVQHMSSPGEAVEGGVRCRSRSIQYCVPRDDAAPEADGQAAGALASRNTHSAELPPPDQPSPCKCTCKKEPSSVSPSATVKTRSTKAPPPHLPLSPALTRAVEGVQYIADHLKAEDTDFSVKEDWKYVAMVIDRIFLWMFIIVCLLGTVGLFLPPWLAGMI
Human α4β2, sequence (P17787 26-502): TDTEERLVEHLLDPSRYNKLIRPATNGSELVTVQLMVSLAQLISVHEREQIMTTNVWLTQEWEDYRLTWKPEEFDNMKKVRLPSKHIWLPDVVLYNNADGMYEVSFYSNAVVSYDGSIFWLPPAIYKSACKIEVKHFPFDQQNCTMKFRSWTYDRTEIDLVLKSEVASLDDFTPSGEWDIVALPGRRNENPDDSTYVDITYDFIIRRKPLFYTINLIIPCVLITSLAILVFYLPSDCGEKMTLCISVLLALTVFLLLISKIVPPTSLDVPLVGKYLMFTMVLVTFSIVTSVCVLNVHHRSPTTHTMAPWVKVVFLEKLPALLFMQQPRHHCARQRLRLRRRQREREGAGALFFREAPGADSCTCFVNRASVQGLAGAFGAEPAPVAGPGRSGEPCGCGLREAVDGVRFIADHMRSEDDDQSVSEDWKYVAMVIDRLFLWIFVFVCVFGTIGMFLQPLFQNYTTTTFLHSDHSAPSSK

Take `Cc1cc(C(=O)N2C[C@@H]3CN[C@@H](C3)C2)no1`: the inhibition at 5 µM in assay [1] is not above 50%. Further, the Ki in assay [2] (read-out: Human α4β2 Ki) came to 503 nM; in assay [3] (setting [5]) it was 853 nM.
With `Cc1cc(C(=O)N2C[C@@H]3CN[C@@H](C3)C2)on1`, in assay [1], the inhibition at 5 µM is not above 50%. The Ki in assay [2] turned out to be 76.1 nM; in assay [3] (setting [5]) it was 104 nM.
With `CC(C)c1cc(C(=O)N2C[C@@H]3CN[C@@H](C3)C2)on1`, the inhibition at 5 µM in assay [1] is not above 50%. Besides, the values for the Ki in assay [2] (read-out: Human α4β2 Ki) and in assay [3] (setting [5]) were 724 nM and 470 nM, respectively.
As for `O=C(c1ccco1)N1CCC2CNCC21` (stereo not shown), in assay [1], the inhibition at 5 µM is not above 50%. For the same molecule, the Ki was found to be 851 nM in assay [2] (read-out: Human α4β2 Ki) and 599 nM in assay [3] (setting [5]).
The corresponding values for `O=C(c1ccco1)N1CC2CCNC2C1` (stereo not shown) are not above 50%, 789 nM and 832 nM.
Turning to `Cc1nocc1C(=O)N1CC2CCNCC2C1` (stereo not shown), the inhibition at 5 µM in assay [1] was not above 50%. For the same molecule, the figures for the Ki in assay [2] (read-out: Human α4β2 Ki) and in assay [3] (setting [5]) were 892 nM and 882 nM, respectively.
For `Cc1ncoc1C(=O)N1CC2CCNCC2C1` (stereo not shown), in assay [1], the inhibition at 5 µM is not above 50%. Moreover, the values for the inhibition constant (Ki) in assay [2] (read-out: Human α4β2 Ki) and in assay [3] (setting [5]) were 213 nM and 952 nM, respectively.
For the molecule `Cc1nocc1C(=O)N1CC2CCNC2C1` (stereo not shown), in assay [1], the inhibition at 5 µM was not above 50%. Moreover, the inhibition constant (Ki) in assay [2] (read-out: Human α4β2 Ki) was 639 nM; in assay [3] (setting [5]), 222 nM.
With `O=C(c1ccc(Br)o1)N1C[C@@H]2CN[C@@H](C2)C1` [(1S,5S)-3-(5-bromofuran-2-ylcarbonyl)-3,6-diazabicyclo[3.2.1]octane], in assay [4], the “activity in NOR (recognition index)” value was “active”.
In the case of `O=C(c1ccc(Br)o1)N1C[C@@H]2CN[C@@H](C2)C1` [drawing 16], the inhibition at 5 µM in assay [1] is not above 50%. Moreover, the values for the inhibition constant (Ki) in assay [2] (read-out: Human α4β2 Ki) and in assay [3] were 42.9 nM and 38.5 nM, respectively.
